According to patent US20040241154A1, “Secretin for the treatment of asthma” (priority 2001, published 2004):
Blank lines part the entries; values can stand above or below the compound they belong to.

Experiments:
tertiary bronchial rings = assay: Relaxation of carbachol precontracted human tertiary bronchial rings in organ bath
Method: The bronchorelaxant properties of secretin was examined in vitro, in the tertiary bronchus of non-diseased tissue. […] Tissues were precontracted with carbachol at the concentration being that which caused a contraction approximately 60-70% of the maximum, and a cumulative concentration-effect contractile curve (CEC) to secretin (0.01 μM to 3 μM) was constructed on each preparation.

[1] = test system: epithelial cells derived from the human tertiary bronchus; assay: Short circuit current in cultured tertiary bronchial epithelial cell monolayers in modified Ussing chamber; format: cell-based
Excerpt: Functional effects of the secretin receptor were probed in epithelial cells derived from the human tertiary bronchus. In brief, tertiary bronchial epithelial were isolated by overnight protease digestion and then cultured until confluency on Snapwell (Costar) permeable supports. The supports were mounted in a modified Ussing chamber, and both luminal and basolateral membranes were bathed in oxygenated Krebs extracellular solution. The cells were voltage clamped to zero to allow changes in short circuit current in response to secretin to be measured. As previously described, 10 μM amiloride was initially added to the luminal membrane (FIG. 4, point a) followed by the addition of 100 nM secretin to the luminal membrane (FIG. 4, point b).

[2] = test system: primary human, tertiary bronchial epithelial cells; assay: Cl- efflux from primary human tertiary bronchial epithelial cells (MQAE fluorescence); format: cell-based
Method: Ionic movement in tertiary bronchial epithelial cells was further characterised with the use of the Cl^− specific fluorescent probe MQAE (n-(ethoxycarbonylmethyl)-6-methoxyquinolinium bromide; Molecular Probes). In brief, primary human, tertiary bronchial epithelial cells were isolated as described above and cultured in a 96 well plate. On reaching confluency, cells were loaded overnight with 4 mM MQAE. Cells were washed in a chloride containing HEPES buffer, before passive Cl^− efflux was initiated by the addition of a Cl^− free buffer.
The experiment of example 3a above was repeated using a range of secretin concentrations from 1 to 1000 nM.

human tertiary bronchus = assay: Short circuit current across human tertiary bronchus wall in modified Ussing chamber
[3] = 10 μM ATP or UTP added to apical membrane of the lung epithelium

mean pEC50, relaxation (tertiary bronchial rings; carbachol precontracted tertiary bronchial rings): 6.8±0.2
SMILES: CC(C)C[C@H](NC(=O)CNC(=O)[C@H](CCC(N)=O)NC(=O)[C@H](CC(C)C)NC(=O)[C@H](CC(C)C)NC(=O)[C@H](CCCNC(=N)N)NC(=O)[C@H](CCC(N)=O)NC(=O)[C@H](CC(C)C)NC(=O)[C@H](CCCNC(=N)N)NC(=O)[C@H](C)NC(=O)CNC(=O)[C@H](CCC(=O)O)NC(=O)[C@H](CCCNC(=N)N)NC(=O)[C@H](CC(C)C)NC(=O)[C@H](CCCNC(=N)N)NC(=O)[C@H](CO)NC(=O)[C@H](CC(C)C)NC(=O)[C@H](CCC(=O)O)NC(=O)[C@H](CO)NC(=O)[C@@H](NC(=O)[C@H](Cc1ccccc1)NC(=O)[C@@H](NC(=O)CNC(=O)[C@H](CC(=O)O)NC(=O)[C@H](CO)NC(=O)[C@@H](N)Cc1c[nH]cn1)[C@@H](C)O)[C@@H](C)O)C(=O)N[C@H](C(N)=O)C(C)C [secretin]
relaxations of the carbachol-evoked tone (tertiary bronchial rings; secretin 0.01 μM to 3 μM, in 7 of the 8 preparations tested): concentration-dependent relaxations
mean relaxation as % of the relaxation observed to isoprenaline (1 μM) (tertiary bronchial rings; secretin 3 μM, n=7 preparations from 4 donors): 37±11%
ionic movement (short circuit current) ([1]; 100 nM secretin added to luminal membrane after 10 μM amiloride): stimulated ionic movement in a manner consistent with the movement of a negatively charged ion
Cl- efflux (changes in MQAE fluorescence) ([2]; 12.5 nM secretin): stimulated Cl^− efflux
Cl- efflux (changes in MQAE fluorescence) ([2]; 100 nM secretin): stimulated Cl^− efflux
Maximal secretin stimulated Cl- efflux ([2]; compared with Prostaglandin E2 (10 μM), secretin 1 to 1000 nM): of a similar magnitude to that observed to Prostaglandin E2
Log EC50 (M), Cl- efflux ([2]; printed as negative Log EC50, mean ± s.e.mean, 2 to 6 independent experiments, cells from 6 donors, normalised to PGE2): -7.64±0.24 M
ionic movement (short circuit current) (human tertiary bronchus; 3 μM human secretin added to luminal membrane after 10 μM amiloride, non-asthma donors): stimulate ionic movement in a manner consistent with the movement of a negatively charged ion

SMILES: COc1ccc(Cl)cc1C(=O)NCCc1ccc(S(=O)(=O)NC(=O)NC2CCCCC2)cc1 [glibenclamide]
suppression of secretin mediated ionic movement ([1]; 500 μM glibenclamide after 100 nM secretin): failed to suppress secretin mediated ionic movement

SMILES: O=c1ccn([C@@H]2O[C@H](COP(=O)(O)OP(=O)(O)OP(=O)(O)O)[C@@H](O)[C@H]2O)c(=O)[nH]1 [UTP]
ionic movement (short circuit current) (human tertiary bronchus; [3]): stimulate a similar ionic movement of similar magnitude

SMILES: Nc1ncnc2c1ncn2[C@@H]1O[C@H](COP(=O)(O)OP(=O)(O)OP(=O)(O)O)[C@@H](O)[C@H]1O [ATP]
ionic movement (short circuit current) (human tertiary bronchus; [3]): stimulate a similar ionic movement of similar magnitude

SMILES: O=C(O)c1cc([N+](=O)[O-])ccc1NCCCc1ccccc1 [NPPB, 5-nitro-2-(3-phenylpropyl-amino)benzoic acid]
effect on 100 nM secretin mediated changes in fluorescence ([2]; 100 μM NPPB): abolished
